Publication PMC8658016, “Identification of New Compounds with Anticonvulsant and Antinociceptive Properties in a Group of 3-substituted (2,5-dioxo-pyrrolidin-1-yl)(phenyl)-Acetamides” (International Journal of Molecular Sciences, 2021)

Tests used:
[1] = molecular target: Cav1.2 (h) calcium ion channel (Homo sapiens, UniProt Q13936); assay: Cav1.2 calcium ion channel cell based antagonist calcium flux assay; details: HEK293, read-out: % Inhibition of Control Agonist Response, Cav1.2 (h) calcium ion channel cell based antagonist calcium flux assay
rats = assay: Carrageenan-induced mechanical hyperalgesia; type: in vivo, rat; details: 80 mg/kg
Source text: To test the anti-inflammatory activity and the potential to attenuate inflammatory pain, we tested compound 14 in the model of carrageenan-induced aseptic inflammation. In this model, the subplantar injection of carrageenan induced an edema, mechanical, and thermal hyperalgesia. […] In our opinion, the most surprising and interesting was the long-lasting anti-edematous effect. It may result from the pharmacokinetic properties of compound 14, but also from its unique mechanism. Since inflammation is one of the critical components of neuropathy, the anti-inflammatory activity of compound 14 may be a valuable and distinctive property from classical ASDs used to treat neuropathic pain [33]. […] The pain threshold reached 87.3%, 90.9%, and 89.7% of its initial value 3, 6, and 24 h after carrageenan injection, respectively. […] The initial latency for compound 14-treated animals was 8.95 ± 0.4 s. The administration of compound 14 changed the values to 127.0%, 102.0%, 79.8%, 83.8%, and 164.4% of the initial value 1, 2, 3, 6-, and 24-h following carrageenan injection, respectively.
The experiments were conducted on adult male Albino Swiss mice (CD-1, 18–25 g) and male Wistar rats (Krf:(WI) WU), 180–250 g) as described previously. The minimum number of animals used needed to obtain definite and normally distributed results with the utilized test. Behavioral measures were scored by trained observers, which were blind to experimental conditions. The following devices were used in the experiments: Analgesy Meter (37215, Ugo Basile), Plantar Test Apparatus (EFV5, Commat Ltd., Turkey), Plethysmometer (Plethysmometer 7140, Ugo Basile), Electronic von Frey unit (BIOSEB, France). […]
Figure 8 Effect of compound 14 on carrageenan-induced oedema (A), mechanical hyperalgesia (B), and thermal hyperalgesia (C), developed after subplantar injection of 1% carrageenan in rats. Data are expressed as means ± S.E.M. for 6 animals; 0—the initial value considered as the paw volume (A) or nociceptive reaction (B,C) before carrageenan administration. […]

[2] = Rectal temperature measurement; type: in vivo, mouse; details: 30 and 60 mg/kg i.p., 30 min
Description: Figure 4 Acute effect of compound 14 on rectal temperature in mice. Compound 14 was administered i.p. 30 min before the seizure test. Control animals received vehicle only. Each experimental group consisted of 10 animals. Each bar represents the mean difference between the pre-injection and post-injection values of rectal temperature in mice (ΔT) + S.E.M. Data were analyzed with one-way ANOVA test (GraphPad Prism 8.0.1).
In this study, we used adult male Swiss albino mice (Kołacz, Laboratory Animals Breeding, Warszawa, Poland) license no. 106/2019 (Local Ethical Committee in Lublin). […]
The timed ivPTZ test was employed to evaluate the acute effect of compound 14 on the seizure thresholds for (1) the first myoclonic twitch, (2) generalized clonic seizure with loss of righting reflex, and (3) forelimb tonus. […] The changes in temperature were recorded using an electronic thermometer (ThermoWorks, Alpine, UT, USA). […]
The probe remained in the rectum for several second, allowing for temperature stabilization. The temperature was recorded just before injection of compound 14 or vehicle and 30 min later. The difference between the pre- and post-injection temperature value was then calculated (Δ °C).

SH-SY5Y viability (MTS) = type: cell-based; details: human, neuroblastoma SH-SY5Y cells
mice = assay: Timed ivPTZ seizure threshold test; type: in vivo, mouse
Source text: The timed ivPTZ test was employed to evaluate the acute effect of compound 14 on the seizure thresholds for (1) the first myoclonic twitch, (2) generalized clonic seizure with the loss of the righting reflex, and (3) forelimb tonus. The experimental procedure has been described in detail elsewhere.
In this study, we used adult male Swiss albino mice (Kołacz, Laboratory Animals Breeding, Warszawa, Poland) license no. 106/2019 (Local Ethical Committee in Lublin). In studies assessing the acute effect of compound 14 on neuromuscular strength, body temperature, and seizure threshold, compound 14 was suspended in a 1% solution of Tween 80 and administered i.p., 30 min before the tests.
The timed ivPTZ test was employed to evaluate the acute effect of compound 14 on the seizure thresholds for (1) the first myoclonic twitch, (2) generalized clonic seizure with loss of righting reflex, and (3) forelimb tonus. The experimental procedure was described in detail elsewhere. The changes in temperature were recorded using an electronic thermometer (ThermoWorks, Alpine, UT, USA). Mice were gently restrained and a rectal probe was inserted to a depth of ~2 cm into the rectum.
Figure 2 Acute effect of compound 14 on the threshold for the first myoclonic twitch (panel (A)), generalized clonus (panel (B)), and forelimb tonus (panel (C)) in the ivPTZ seizure threshold test in mice. Compound 14 was administered i.p. 30 min before the seizure test. Control animals received vehicle only. Each experimental group consisted of 9–11 animals. Each bar represents the mean (mg/kg PTZ) + S.E.M. * p < 0.05; ** p < 0.01 vs. the control group (one-way ANOVA, followed by Dunnett’s post hoc test, GraphPad Prism 8.0.1).

[3] = 30 mg/kg i.p., 30 min before test

Cav1.2 (h) calcium ion channel, sequence (Q13936 whole entry): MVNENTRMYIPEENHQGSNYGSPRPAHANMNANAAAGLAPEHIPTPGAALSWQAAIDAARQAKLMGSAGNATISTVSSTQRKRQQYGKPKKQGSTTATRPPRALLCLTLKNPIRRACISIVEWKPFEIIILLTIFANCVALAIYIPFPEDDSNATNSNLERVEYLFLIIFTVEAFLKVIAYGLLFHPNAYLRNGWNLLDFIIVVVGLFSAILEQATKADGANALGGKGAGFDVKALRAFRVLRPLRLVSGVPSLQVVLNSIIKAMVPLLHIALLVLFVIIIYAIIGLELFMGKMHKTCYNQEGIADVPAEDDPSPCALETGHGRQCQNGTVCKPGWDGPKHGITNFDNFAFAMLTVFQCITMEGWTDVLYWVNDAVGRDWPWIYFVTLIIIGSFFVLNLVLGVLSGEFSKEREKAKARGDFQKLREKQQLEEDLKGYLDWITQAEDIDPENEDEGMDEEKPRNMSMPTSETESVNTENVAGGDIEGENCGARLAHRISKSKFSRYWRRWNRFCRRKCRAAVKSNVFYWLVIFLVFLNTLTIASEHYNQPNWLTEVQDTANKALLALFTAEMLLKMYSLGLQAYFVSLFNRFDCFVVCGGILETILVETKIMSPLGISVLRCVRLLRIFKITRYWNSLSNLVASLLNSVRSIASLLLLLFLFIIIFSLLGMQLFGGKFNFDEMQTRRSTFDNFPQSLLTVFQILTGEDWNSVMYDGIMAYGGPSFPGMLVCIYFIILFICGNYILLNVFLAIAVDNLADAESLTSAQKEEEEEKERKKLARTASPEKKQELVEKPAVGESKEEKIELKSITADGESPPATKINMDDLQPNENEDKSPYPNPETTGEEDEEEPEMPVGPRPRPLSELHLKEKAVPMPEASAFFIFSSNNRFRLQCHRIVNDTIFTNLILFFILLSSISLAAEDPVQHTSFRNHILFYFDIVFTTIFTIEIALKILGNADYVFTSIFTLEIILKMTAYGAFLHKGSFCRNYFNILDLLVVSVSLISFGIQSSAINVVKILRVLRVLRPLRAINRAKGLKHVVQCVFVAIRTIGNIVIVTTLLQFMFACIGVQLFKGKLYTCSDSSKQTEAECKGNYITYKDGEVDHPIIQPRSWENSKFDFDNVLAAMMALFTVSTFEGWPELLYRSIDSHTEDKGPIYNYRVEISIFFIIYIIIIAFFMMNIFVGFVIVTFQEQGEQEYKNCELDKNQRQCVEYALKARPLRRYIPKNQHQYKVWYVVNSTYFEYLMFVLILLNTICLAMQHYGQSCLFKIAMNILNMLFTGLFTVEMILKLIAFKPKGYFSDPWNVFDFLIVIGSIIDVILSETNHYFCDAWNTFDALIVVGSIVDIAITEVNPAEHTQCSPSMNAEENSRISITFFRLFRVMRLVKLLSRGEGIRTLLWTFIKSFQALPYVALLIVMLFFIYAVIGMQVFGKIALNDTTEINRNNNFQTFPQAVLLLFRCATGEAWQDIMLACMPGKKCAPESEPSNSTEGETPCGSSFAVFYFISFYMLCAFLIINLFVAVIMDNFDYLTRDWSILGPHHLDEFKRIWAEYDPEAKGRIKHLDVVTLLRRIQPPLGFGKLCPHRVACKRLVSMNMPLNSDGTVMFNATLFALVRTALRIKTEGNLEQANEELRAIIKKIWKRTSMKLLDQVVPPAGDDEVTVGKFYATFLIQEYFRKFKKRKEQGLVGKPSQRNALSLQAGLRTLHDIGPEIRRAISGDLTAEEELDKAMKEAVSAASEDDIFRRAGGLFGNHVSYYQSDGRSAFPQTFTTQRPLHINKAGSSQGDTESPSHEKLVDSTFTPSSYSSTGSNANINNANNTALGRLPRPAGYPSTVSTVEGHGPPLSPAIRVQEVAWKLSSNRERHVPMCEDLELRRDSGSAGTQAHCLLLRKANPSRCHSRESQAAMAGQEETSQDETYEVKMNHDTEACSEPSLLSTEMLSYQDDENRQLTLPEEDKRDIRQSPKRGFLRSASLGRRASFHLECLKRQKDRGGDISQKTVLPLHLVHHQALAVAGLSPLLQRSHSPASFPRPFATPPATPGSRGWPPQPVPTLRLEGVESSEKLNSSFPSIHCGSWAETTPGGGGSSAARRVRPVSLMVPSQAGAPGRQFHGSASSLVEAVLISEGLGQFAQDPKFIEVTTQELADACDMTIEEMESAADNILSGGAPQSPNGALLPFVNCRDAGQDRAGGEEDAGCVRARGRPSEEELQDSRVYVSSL
Cav1.2 (h) calcium ion channel, sequence (Q08289 whole entry partner): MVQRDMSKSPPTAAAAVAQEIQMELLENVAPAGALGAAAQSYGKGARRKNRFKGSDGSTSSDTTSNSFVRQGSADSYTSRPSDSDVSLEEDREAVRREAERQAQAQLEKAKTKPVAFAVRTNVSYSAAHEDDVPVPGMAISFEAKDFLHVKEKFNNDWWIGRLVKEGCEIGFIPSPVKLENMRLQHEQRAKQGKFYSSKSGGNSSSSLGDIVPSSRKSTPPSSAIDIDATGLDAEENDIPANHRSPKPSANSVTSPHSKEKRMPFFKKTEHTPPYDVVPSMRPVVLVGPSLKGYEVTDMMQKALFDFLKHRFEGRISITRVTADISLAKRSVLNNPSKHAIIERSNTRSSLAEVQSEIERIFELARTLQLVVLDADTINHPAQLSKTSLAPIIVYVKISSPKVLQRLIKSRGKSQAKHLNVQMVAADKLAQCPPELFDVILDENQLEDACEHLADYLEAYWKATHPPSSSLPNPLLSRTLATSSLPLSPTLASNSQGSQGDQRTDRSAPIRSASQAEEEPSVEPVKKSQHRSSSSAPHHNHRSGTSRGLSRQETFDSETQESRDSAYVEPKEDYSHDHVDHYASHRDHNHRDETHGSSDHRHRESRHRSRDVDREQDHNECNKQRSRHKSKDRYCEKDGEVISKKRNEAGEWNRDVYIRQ
Cav1.2 (h) calcium ion channel, sequence (P54289 25-956 partner limits assumed): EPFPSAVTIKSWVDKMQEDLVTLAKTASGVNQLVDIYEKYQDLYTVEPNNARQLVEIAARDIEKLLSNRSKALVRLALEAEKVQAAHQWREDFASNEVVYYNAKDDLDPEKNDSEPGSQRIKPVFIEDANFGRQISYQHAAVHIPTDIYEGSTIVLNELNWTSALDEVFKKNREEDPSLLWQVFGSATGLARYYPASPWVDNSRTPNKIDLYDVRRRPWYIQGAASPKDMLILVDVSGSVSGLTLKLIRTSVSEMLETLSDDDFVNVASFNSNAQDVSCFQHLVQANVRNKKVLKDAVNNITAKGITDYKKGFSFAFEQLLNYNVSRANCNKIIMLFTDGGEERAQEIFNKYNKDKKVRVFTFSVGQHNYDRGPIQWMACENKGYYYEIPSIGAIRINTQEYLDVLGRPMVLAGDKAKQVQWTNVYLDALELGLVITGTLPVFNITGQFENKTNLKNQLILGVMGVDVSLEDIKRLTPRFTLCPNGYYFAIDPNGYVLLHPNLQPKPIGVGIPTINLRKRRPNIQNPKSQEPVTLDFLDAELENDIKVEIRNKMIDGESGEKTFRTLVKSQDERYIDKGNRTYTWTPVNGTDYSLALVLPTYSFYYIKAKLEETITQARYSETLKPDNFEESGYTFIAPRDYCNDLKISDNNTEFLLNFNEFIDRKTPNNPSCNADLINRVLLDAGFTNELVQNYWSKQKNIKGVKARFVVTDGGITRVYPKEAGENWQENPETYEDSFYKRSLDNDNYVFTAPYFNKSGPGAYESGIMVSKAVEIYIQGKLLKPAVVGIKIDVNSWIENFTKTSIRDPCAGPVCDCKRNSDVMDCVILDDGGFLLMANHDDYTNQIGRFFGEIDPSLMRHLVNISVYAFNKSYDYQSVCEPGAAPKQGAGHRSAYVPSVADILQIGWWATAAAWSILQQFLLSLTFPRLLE
Cav1.2 (h) calcium ion channel, sequence (P54289 957-1103 partner limits assumed): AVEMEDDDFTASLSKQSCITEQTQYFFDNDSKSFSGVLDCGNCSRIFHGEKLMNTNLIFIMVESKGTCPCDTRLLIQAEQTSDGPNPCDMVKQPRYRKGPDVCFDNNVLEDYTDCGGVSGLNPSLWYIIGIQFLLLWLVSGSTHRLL

SMILES: CN(C)C1CC(=O)N(C(C(=O)N2CCN(c3cccc(C(F)(F)F)c3)CC2)c2ccccc2)C1=O.Cl (stereo not shown) [Compound 14, 3-(Dimethylamino)-1-(2-oxo-1-phenyl-2-(4-(3-(trifluoromethyl)phenyl)-piperazin-1-yl)ethyl)pyrrolidine-2,5-dione hydrochloride]
- inhibition at 10 µM [1]: 29%
- withdrawal threshold, % of the initial reaction (mechanical hyperalgesia) (rats; 3 h after carrageenan): 113.3%
- withdrawal threshold, % of the initial reaction (mechanical hyperalgesia) (rats; 6 h after carrageenan): 110.1%
- withdrawal threshold, % of the initial reaction (mechanical hyperalgesia) (rats; 24 h after carrageenan): 111.4%
- melting point: 157.8 to 159.2 °C
- effect on body (rectal) temperature [2]: did not produce statistically significant changes
- viability at 72 h, 0.001 µM (SH-SY5Y viability (MTS); 0.001 µM, read-out: SH-SY5Y cell viability, % of the control): ≤ 120%
- viability at 72 h, 10 µM (SH-SY5Y viability (MTS); 10 µM, read-out: SH-SY5Y cell viability, % of control): 140%
- effect on threshold for generalized clonus (ivPTZ) (mice; [3]): did not significantly affect
- effect on threshold for the first myoclonic twitch (ivPTZ) (mice; [3]): did not significantly affect
- effect on threshold for generalized clonic seizure (ivPTZ) (mice; 60 mg/kg i.p., 30 min before test, p < 0.01): slightly increased
- effect on threshold for the first myoclonic twitch (ivPTZ) (mice; 60 mg/kg i.p., 30 min before test, p < 0.05): slightly increased
- effect on threshold for forelimb tonic extension (ivPTZ) (mice; 30 and 60 mg/kg i.p.): No statistically significant changes
